The assay concerns primary acute myeloid leukaemia (AML) blasts. Description: In vitro cytotoxicity assay (annexin V apoptosis) in primary acute myeloid leukemia cells. The assay is classed as cell-based, human. As to conditions: primary AML blasts, CD34+ cells, 48h, annexin V. How it is done: NUC-1031 was assayed for its cytotoxic effects on primary cultures of acute myeloid leukaemia (AML) blasts. LD50 values (the concentration required to kill 50% of the tumour cells in culture) were calculated in respect of NUC-1031 and gemcitabine.
Bone marrow samples were collected in ethylenediaminetetraacetic acid (EDTA) from newly diagnosed, previously untreated, acute myeloid leukemia (AML) patients. AML blasts were enriched by density gradient centrifugation using Histopaque (Sigma, Poole, UK) and were subsequently maintained in Roswell Park Memorial Institute medium (RPMI) supplemented with 10% foetal bovine serum (FBS). Cells were treated with Gemcitabine or NUC-1031 at concentrations between 0.25 µM and 10 µM, and incubated for 48h. All cultures were maintained at 37° C. in a 5% CO2 humidified atmosphere.
Cells were harvested and labelled with CD34-fluorescein isothiocyanate (FITC) (BD Biosciences, Buckingham, UK) and then resuspended in 200 µl of binding buffer containing 4µl of annexin V labelled with allophycocyanin (APC) (eBioscience Ltd, Hatfield, UK). Apoptosis was quantified in the CD34^+ AML cells using an Accuri C6 flow cytometer (Becton Dickinson, CA, USA). At least 10,000 events were acquired and data were subsequently analysed using FlowJo software (Tree Star Inc., Ashland, OR, USA). All LD50 values (concentration of drug required to kill 50% of cells) were derived from the dose-response curves.

Experimental findings from patent US20230226092A1, “CANCER […] ON G[…]” (NuCana plc, priority 2015, published 2023) are described below.

`Nc1ccn([C@@H]2O[C@H](CO)[C@@H](O)C2(F)F)c(=O)n1` [gemcitabine, reference compound]: the “mean LD50” value stood at 3.1 µM.
